Results from patent US20150307520A1, “NOVEL HETEROARYL AND HETEROCYCLE COMPOUNDS, COMPOSITIONS AND METHODS THEREOF” (HUTCHISON MEDIPHARMA LIMITED, priority 2012, published 2015).

Assays:
Assay type in all cases: biochemical
[1] = biological target: p110β/p85α (Homo sapiens, UniProt P42338); experiment: Transcreener KINASE Assay, kinase inhibition of p110β/p85α; conditions: for PI3Kβ IH % @ 1 uM: 1 uM test compound; for IC50: read-out: PI3Kβ IC50
Procedure, shortened: (§1)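 Steps: compound (2% DMSO final) plus enzyme in HEPES/NaCl/EGTA/CHAPS/3 mM MgCl2/1 mM DTT buffer; start with PIP2/ATP addition (30 uM/10 uM solution); 80 min RT; add ADP detection mix, 60 min RT; read fluorescence polarization.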

[2] = biological target: p110δ/p85α (Homo sapiens, UniProt O00329); experiment: Transcreener KINASE Assay, kinase inhibition of p110δ/p85α; conditions: for PI3Kδ IH % @ 1 uM: 1 uM test compound; for IC50: read-out: PI3Kδ IC50
Procedure, shortened: as §1

[3] = biological target: p110γ (Homo sapiens, UniProt P48736); experiment: Transcreener KINASE Assay, kinase inhibition of p110γ; conditions: for PI3Kγ IH % @ 1 uM: 1 uM test compound; for IC50: read-out: PI3Kγ IC50
Procedure, shortened: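 Steps: enzyme reaction with compound, 80 min at room temperature; add ADP detection reagent, incubate 60 min at room temperature; read fluorescence polarization. Inhibition and IC50 values are derived from the ADP signal.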

Chain of p110γ (P48736 whole entry): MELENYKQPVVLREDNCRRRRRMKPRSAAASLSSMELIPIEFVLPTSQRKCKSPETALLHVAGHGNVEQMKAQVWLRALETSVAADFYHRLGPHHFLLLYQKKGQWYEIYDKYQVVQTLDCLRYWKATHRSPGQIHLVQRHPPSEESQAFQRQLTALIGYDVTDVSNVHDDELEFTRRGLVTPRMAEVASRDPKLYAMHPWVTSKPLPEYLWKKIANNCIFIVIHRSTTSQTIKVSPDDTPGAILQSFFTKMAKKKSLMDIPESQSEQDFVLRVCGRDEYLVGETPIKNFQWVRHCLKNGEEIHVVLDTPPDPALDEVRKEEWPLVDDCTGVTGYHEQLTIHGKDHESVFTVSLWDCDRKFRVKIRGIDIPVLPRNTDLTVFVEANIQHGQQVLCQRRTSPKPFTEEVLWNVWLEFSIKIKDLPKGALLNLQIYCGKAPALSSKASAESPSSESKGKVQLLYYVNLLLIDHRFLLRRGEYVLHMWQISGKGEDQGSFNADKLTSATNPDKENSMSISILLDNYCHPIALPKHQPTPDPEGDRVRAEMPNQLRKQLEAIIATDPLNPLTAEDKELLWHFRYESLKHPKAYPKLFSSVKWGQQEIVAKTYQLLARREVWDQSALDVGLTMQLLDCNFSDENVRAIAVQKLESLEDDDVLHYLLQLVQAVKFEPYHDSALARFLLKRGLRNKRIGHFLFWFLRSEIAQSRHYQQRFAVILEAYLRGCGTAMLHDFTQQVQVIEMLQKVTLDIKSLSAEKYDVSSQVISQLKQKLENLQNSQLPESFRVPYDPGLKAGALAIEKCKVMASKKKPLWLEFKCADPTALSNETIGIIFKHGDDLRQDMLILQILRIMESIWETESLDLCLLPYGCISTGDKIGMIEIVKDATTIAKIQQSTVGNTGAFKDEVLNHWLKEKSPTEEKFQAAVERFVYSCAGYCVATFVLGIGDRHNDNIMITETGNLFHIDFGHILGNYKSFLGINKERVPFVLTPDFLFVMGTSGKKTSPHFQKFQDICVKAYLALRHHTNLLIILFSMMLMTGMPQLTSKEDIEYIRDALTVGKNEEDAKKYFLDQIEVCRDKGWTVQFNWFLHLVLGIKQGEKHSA
Chain of p110δ/p85α (O00329 whole entry): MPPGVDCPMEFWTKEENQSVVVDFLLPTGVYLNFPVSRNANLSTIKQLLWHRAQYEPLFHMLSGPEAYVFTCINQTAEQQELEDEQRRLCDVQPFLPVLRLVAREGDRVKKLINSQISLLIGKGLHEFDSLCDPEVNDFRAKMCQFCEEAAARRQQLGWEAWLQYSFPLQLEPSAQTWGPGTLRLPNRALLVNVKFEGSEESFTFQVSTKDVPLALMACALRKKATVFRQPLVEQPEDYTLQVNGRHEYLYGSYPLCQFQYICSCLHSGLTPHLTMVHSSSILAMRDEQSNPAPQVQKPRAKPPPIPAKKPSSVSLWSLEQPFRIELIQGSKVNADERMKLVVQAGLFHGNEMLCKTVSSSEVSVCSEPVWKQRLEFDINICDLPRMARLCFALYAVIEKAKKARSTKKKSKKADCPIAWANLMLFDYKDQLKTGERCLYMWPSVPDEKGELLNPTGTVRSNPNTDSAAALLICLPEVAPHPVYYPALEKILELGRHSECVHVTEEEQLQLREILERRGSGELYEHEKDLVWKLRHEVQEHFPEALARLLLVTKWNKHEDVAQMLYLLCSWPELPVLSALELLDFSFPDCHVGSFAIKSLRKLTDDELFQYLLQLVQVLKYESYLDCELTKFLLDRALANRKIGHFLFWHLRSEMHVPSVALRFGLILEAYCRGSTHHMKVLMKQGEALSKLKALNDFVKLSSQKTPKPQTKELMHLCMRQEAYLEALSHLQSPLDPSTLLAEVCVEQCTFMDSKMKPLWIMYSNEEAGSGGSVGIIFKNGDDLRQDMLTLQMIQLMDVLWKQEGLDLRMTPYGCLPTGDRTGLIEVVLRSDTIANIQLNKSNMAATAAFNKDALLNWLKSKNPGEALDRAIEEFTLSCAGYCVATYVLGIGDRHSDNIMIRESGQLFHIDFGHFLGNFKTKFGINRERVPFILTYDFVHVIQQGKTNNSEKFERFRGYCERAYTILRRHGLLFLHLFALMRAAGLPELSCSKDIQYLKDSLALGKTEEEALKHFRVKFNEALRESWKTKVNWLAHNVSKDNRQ
Chain of p110δ/p85α (P27986 whole entry partner): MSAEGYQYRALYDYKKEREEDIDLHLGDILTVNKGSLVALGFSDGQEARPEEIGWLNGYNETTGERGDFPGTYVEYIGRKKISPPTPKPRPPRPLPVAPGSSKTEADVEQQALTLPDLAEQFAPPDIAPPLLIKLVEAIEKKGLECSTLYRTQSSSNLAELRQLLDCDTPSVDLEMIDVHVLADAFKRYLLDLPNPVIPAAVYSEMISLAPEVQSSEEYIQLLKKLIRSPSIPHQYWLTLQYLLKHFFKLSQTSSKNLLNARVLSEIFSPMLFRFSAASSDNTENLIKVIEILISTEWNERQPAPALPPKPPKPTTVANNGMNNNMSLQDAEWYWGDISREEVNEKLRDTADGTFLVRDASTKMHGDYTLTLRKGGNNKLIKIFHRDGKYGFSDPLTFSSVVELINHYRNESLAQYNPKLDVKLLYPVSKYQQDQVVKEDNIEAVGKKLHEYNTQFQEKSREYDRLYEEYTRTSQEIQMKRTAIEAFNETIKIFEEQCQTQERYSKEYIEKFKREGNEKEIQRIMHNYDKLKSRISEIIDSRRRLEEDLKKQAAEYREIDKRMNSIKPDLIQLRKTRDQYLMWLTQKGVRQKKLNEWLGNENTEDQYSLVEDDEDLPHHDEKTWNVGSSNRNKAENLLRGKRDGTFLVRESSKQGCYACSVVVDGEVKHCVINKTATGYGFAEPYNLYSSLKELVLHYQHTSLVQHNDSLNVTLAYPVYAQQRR
Chain of p110β/p85α (P42338 whole entry): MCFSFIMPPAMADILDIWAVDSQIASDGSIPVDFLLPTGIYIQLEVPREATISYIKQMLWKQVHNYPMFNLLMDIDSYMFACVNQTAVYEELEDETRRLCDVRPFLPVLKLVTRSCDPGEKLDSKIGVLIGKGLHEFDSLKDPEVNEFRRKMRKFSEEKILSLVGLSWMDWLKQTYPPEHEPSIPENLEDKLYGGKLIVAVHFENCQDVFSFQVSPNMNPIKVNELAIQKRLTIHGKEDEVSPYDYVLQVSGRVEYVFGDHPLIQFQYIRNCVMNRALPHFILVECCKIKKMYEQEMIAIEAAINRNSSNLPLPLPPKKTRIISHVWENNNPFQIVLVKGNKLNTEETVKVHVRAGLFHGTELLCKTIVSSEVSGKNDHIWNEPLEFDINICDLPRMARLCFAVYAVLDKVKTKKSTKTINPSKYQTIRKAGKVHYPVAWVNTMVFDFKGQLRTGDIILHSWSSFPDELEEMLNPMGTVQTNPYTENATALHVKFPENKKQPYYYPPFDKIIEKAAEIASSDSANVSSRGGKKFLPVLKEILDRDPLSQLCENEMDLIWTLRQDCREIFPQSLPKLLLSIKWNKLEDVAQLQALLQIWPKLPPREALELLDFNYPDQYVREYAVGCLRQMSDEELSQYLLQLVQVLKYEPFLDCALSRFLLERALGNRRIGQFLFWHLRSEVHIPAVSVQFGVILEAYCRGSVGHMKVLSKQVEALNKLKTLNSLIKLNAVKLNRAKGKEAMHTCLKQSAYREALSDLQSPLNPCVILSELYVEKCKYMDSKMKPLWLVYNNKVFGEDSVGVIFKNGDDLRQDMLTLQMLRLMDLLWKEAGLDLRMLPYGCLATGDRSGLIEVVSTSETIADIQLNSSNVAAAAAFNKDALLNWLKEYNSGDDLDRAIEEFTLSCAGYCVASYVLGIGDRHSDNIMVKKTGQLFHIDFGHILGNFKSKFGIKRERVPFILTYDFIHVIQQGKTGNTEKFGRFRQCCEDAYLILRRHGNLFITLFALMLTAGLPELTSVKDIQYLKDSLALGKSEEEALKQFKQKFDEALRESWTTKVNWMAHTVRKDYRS
Chain of p110β/p85α (P27986 2-724 partner): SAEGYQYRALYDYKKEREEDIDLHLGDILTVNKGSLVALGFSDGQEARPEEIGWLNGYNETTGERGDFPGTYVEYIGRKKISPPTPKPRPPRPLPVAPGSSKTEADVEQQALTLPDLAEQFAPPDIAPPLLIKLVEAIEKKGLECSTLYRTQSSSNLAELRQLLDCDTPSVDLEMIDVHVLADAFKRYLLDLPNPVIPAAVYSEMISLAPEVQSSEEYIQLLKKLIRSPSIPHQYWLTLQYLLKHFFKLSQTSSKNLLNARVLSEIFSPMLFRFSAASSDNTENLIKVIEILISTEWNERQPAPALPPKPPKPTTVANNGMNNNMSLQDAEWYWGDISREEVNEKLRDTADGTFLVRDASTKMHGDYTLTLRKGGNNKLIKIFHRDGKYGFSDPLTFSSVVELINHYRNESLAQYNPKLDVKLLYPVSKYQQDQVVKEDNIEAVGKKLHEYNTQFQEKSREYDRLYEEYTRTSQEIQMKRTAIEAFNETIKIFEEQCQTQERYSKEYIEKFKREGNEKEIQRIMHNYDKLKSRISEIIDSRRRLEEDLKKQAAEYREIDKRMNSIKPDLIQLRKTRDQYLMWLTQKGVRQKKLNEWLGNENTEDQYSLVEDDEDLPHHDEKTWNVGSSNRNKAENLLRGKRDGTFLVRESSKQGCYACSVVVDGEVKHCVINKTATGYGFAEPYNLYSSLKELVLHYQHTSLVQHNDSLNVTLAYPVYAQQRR

Row | PI3Kβ IH % @ 1 uM [1] [%] | IC50 [1] [nM] | PI3Kδ IH % @ 1 uM [2] [%] | IC50 [2] [nM] | PI3Kγ IH % @ 1 uM [3] [%] | IC50 [3] [nM] | Compound
1 | 94.5 | 93 | 99.7 | 4 | 95.8 | 21 | CC(=O)c1cnc(N)nc1NC(C)c1cc2ncc(Cl)n2c(=O)n1-c1ccccc1 (stereo not drawn) [Compound 288]
2 | – | 39 | – | 1 | – | 4 | CC(Nc1nc(N)nc2c1C(=O)CCN2)c1cc2ncc(Cl)n2c(=O)n1-c1ccccc1 (stereo not drawn) [Compound 290]
3 | 12.6 | – | 80.4 | – | 91.1 | 143 | C=Cc1ccn2nc([C@@H]3CCN3c3ncnc4[nH]cc(C#N)c34)n(-c3ccccc3)c(=O)c12 [Compound 291]
4 | 45.1 | – | >100 | 7 | 94.7 | 112 | C=Cc1ccn2nc([C@@H]3CCCN3c3ncnc4[nH]cc(C#N)c34)n(-c3ccccc3)c(=O)c12 [Compound 292]
5 | 54.2 | – | 98.9 | 14 | 94.7 | 103 | O=c1c2c(Cl)ccn2nc([C@@H]2C[S+]([O-])CN2c2ncnc3[nH]cnc23)n1-c1ccccc1 (stereo partly drawn) [Compound 293, 5-chloro-2-((4R)-1-oxido-3-(9H-purin-6-yl)thiazolidin-4-yl)-3-phenylpyrrolo[2,1-f][1,2,4]triazin-4(3H)-one]
6 | 70.6 | 475 | 99.3 | 3 | >100 | 26 | O=c1c2c(Cl)ccn2nc([C@@H]2CSCN2c2ncnc3[nH]cnc23)n1-c1ccccc1 [Compound 294, (R)-2-(3-(9H-purin-6-yl)thiazolidin-4-yl)-5-chloro-3-phenylpyrrolo[2,1-f][1,2,4]triazin-4(3H)-one]
7 | 6.8 | – | 77.0 | 381 | 85.5 | 36 | CC(=O)c1c[nH]c2ncnc(N3CC[C@H]3c3nn4ccc(Cl)c4c(=O)n3-c3ccc(F)cc3)c12 [Compound 296, (S)-2-(1-(5-acetyl-7H-pyrrolo[2,3-d]pyrimidin-4-yl)azetidin-2-yl)-5-chloro-3-(4-fluorophenyl)pyrrolo[2,1-f][1,2,4]triazin-4(3H)-one]
8 | 61.5 | – | 96.0 | 6 | 92.7 | 15 | CC(=O)c1n[nH]c2ncnc(N3CCC[C@H]3c3nn4ccc(Cl)c4c(=O)n3-c3ccccc3)c12 [Compound 297]
9 | 17.8 | – | 61.9 | – | 70.2 | 158 | CC(=O)c1n[nH]c2ncnc(N3CC[C@H]3c3nn4ccc(Cl)c4c(=O)n3-c3ccccc3)c12 [Compound 298]
10 | 51.5 | – | 99.1 | 29 | 82.7 | 148 | CC(=O)c1c(N)ncnc1N1CC[C@H]1c1nn2ccc(Cl)c2c(=O)n1-c1ccccc1 [Compound 300]
11 | 57.8 | – | 96.5 | 77 | 98.6 | 8 | CC(=O)c1cnc(N)nc1N1CC[C@H]1c1nn2ccc(Cl)c2c(=O)n1-c1ccc(F)cc1 [Compound 302]
12 | 92.7 | 21 | 97.2 | 1 | 94.6 | 1 | O=c1c2c(Cl)ccn2nc([C@@H]2CCCN2c2ncnc3[nH]cc(C4=NCCO4)c23)n1-c1ccccc1 [Compound 303, (S)-5-chloro-2-(1-(5-(4,5-dihydrooxazol-2-yl)-7H-pyrrolo[2,3-d]pyrimidin-4-yl)pyrrolidin-2-yl)-3-phenylpyrrolo[2,1-f][1,2,4]triazin-4(3H)-one]
13 | 47.4 | – | 98.2 | 42 | 93.6 | – | O=C(NCCO)c1c[nH]c2ncnc(N3CC[C@H]3c3nn4ccc(Cl)c4c(=O)n3-c3ccccc3)c12 [Compound 304]
14 | 91.6 | 125 | >100 | 21 | 97.6 | 7 | O=c1c2c(Cl)ccn2nc([C@@H]2CCN2c2ncnc3[nH]cc(C4=NCCO4)c23)n1-c1ccccc1 [Compound 305]
15 | 92.8 | 16 | >100 | 11 | >100 | 29 | C/C(=N\O)c1c[nH]c2ncnc(N3CCC[C@H]3c3nn4ccc(Cl)c4c(=O)n3-c3ccccc3)c12 [Compound 306, (S)-5-chloro-2-(1-(5-(1-(hydroxyimino)ethyl)-7H-pyrrolo[2,3-d]pyrimidin-4-yl)pyrrolidin-2-yl)-3-phenylpyrrolo[2,1-f][1,2,4]triazin-4(3H)-one]
16 | 80.7 | 213 | 98.9 | 5 | 95.9 | 32 | CC(=O)Nc1c[nH]c2ncnc(N3CCC[C@H]3c3nn4ccc(Cl)c4c(=O)n3-c3ccccc3)c12 [Compound 307, (S)—N-(4-(2-(5-chloro-4-oxo-3-phenyl-3,4-dihydropyrrolo[2,1-f][1,2,4]triazin-2-yl)pyrrolidin-1-yl)-7H-pyrrolo[2,3-d]pyrimidin-5-yl)acetamide]
17 | 35.5 | – | >100 | 11 | 94.6 | 99 | N#Cc1c[nH]c2ncnc(N3CC[C@H]3c3nn4ccc(Cl)c4c(=O)n3-c3ccccn3)c12 [Compound 309, (S)-4-(2-(5-chloro-4-oxo-3-(pyridin-2-yl)-3,4-dihydropyrrolo[2,1-f][1,2,4]triazin-2-yl)azetidin-1-yl)-7H-pyrrolo[2,3-d]pyrimidine-5-carbonitrile]
18 | 20.0 | – | 97.1 | 23 | 93.7 | 67 | CC(=O)c1c[nH]c2ncnc(N3CC[C@H]3c3nn4ccc(Cl)c4c(=O)n3-c3ccccn3)c12 [Compound 312]
19 | 52.6 | – | 100.0 | 3 | 77.2 | 423 | O=c1c2c(F)ccn2nc([C@@H]2CCCN2c2ncnc3[nH]cnc23)n1-c1ccccn1 [Compound 313]
20 | 16.8 | – | 17.2 | – | 54.1 | – | Nc1nc(N2CC[C@H]2c2nn3ccc(Cl)c3c(=O)n2-c2ccccc2)n2ncc(Cl)c2n1 [Compound 314, (S)-2-(1-(2-amino-8-chloropyrazolo[1,5-a][1,3,5]triazin-4-yl)azetidin-2-yl)-5-chloro-3-phenylpyrrolo[2,1-f][1,2,4]triazin-4(3H)-one]
21 | 5.5 | – | 29.1 | – | 55.9 | – | N#Cc1cc2nc(N)nc(N3CCC[C@H]3c3nn4ccc(Cl)c4c(=O)n3-c3ccccc3)n2n1 [Compound 320]
22 | 80.5 | 218 | 100.0 | 5 | >100 | 11 | CC(=O)c1cnc(N)nc1N1CCCC1c1cn2ccc(Cl)c2c(=O)n1-c1ccccc1 (stereo not drawn) [Compound 321]
